Laboratory results taken from patent US8163728B2, “Pyrazoles” (Hoffmann-La Roche Inc., priority 2009, dated 2012).

Target: T1, GABA A α5 (Homo sapiens, UniProt P18507+P31644)
T1 construct: expressed in transfected cells; host or cells: HEK293 cells, transiently transfected; membranes prepared from cell pellets
Test: [3H]flumazenil competition binding, human GABA A α5β3γ2 receptors in HEK293 cell membranes
Conditions: human receptor α5β3γ2 transiently transfected in HEK293; 0.5 nM [3H]flumazenil; 1 hour at 4° C.; means of two determinations; read-out: hKi GABA A α5
Protocol: The affinity of compounds at GABA A receptor subtypes was measured by competition for [3H]flumazenil (85 Ci/mmol; Roche) binding to HEK293 cells expressing rat (stably transfected) or human (transiently transfected) receptors of composition α1β3γ2, α2β3γ2, α3β3γ2 and α5β3γ2.
Cell pellets were suspended in Krebs-tris buffer (4.8 mM KCl, 1.2 mM CaCl2, 1.2 mM MgCl2, 120 mM NaCl, 15 mM Tris; pH 7.5; binding assay buffer), homogenized by polytron for ca. 20 sec on ice and centrifuged for 60 min at 4° C. (50000 g; Sorvall, rotor: SM24=20000 rpm). The cell pellets were re-suspended in Krebs-tris buffer and homogenized by polytron for ca. 15 sec on ice. Protein was measured (Bradford method, Bio-Rad) and aliquots of 1 mL were prepared and stored at −80° C.
Assays were incubated to equilibrium for 1 hour at 4° C. and harvested onto GF/C uni-filters (Packard) by filtration using a Packard harvester and washing with ice-cold wash buffer (50 mM Tris; pH 7.5). After drying, filter-retained radioactivity was detected by liquid scintillation counting. Ki values were calculated using Excel-Fit (Microsoft) and are the means of two determinations.

Q: With `Cc1onc(-c2ccc(F)cc2)c1COc1cc(C(=O)NCCO)n(C)n1` [Example 62, 5-[3-(4-Fluoro-phenyl)-5-methyl-isoxazol-4-ylmethoxy]-2-methyl-2H-pyrazole-3-carboxylic acid (2-hydroxy-ethyl)-amide] as the compound, how does the Ki read?
A: 0.0071 µM

Q: `Cc1onc(-c2ccccc2)c1/C=C\c1cc(C(=O)NC(C)C)[nH]n1` [Example 119, 5-[(Z)-2-(5-Methyl-3-phenyl-isoxazol-4-yl)-vinyl]-2H-pyrazole-3-carboxylic acid iso-propylamide] was tested. Which Ki did it give?
A: 0.0202 µM

Q: `Cc1onc(-c2ccc(F)cc2)c1/C=C/c1cc(C(N)=O)n(C)n1` [Example 126, 5-{(E)-2-[3-(4-Fluoro-phenyl)-5-methyl-isoxazol-4-yl]vinyl}-2-methyl-2H-pyrazole-3-carboxylic acid amide] was tested. Which Ki did it give?
A: 0.0015 µM

Q: With `Cc1onc(-c2ccccc2)c1COc1cc(C(=O)NC(C)C)n(C)n1` [Example 46, 2-Methyl-5-(5-methyl-3-phenyl-isoxazol-4-ylmethoxy)-2H-pyrazole-3-carboxylic acid isopropylamide] as the compound, how does the Ki read?
A: 0.0409 µM

Q: Which Ki does the source give for `Cc1onc(-c2ccc(F)cc2)c1COc1cc(C(=O)Nc2ccn(C)n2)n(C)n1` [Example 63, 5-[3-(4-Fluoro-phenyl)-5-methyl-isoxazol-4-ylmethoxy]-2-methyl-2H-pyrazole-3-carboxylic acid (1-methyl-1H-pyrazol-3-yl)-amide] here?
A: 0.0131 µM

Q: With `Cc1onc(-c2ccc(F)cc2)c1COc1cc(C(=O)N[C@H](C)CO)n(C)n1` (single isomer, unassigned) [Example 76, (−)-5-[3-(4-Fluoro-phenyl)-5-methyl-isoxazol-4-ylmethoxy]-2-methyl-2H-pyrazole-3-carboxylic acid ((S)-2-hydroxy-1-methyl-ethyl)-amide or 5-[3-(4-fluoro-phenyl)-5-methyl-isoxazol-4-ylmethoxy]-2-methyl-2H-pyrazole-3-carboxylic acid ((R)-2-hydroxy-1-methyl-ethyl)-amide or enantiomer] as the compound, how does the Ki read?
A: 0.0108 µM

Q: Which Ki does the source give for “5-{(E)-2-[3-(4-Fluoro-phenyl)-5-methyl-isoxazol-4-yl]vinyl}-2H-pyrazole-3-carboxylic acid (2-hydroxy-1-methyl-ethyl)-amide [Example 136]” here?
A: 0.001 µM

Q: Which Ki does the source give for `Cc1onc(-c2ccccn2)c1COc1cc(C(=O)NC2CCOCC2)nn1C` [Example 116, 1-Methyl-5-(5-methyl-3-pyridin-2-yl-isoxazol-4-ylmethoxy)-1H-pyrazole-3-carboxylic acid (tetrahydro-pyran-4-yl)-amide] here?
A: 0.0182 µM

Q: With `Cc1onc(-c2ccc(F)cc2)c1COc1cc(C(=O)NC(C)(C)CO)n(C)n1` [Example 55, 5-[3-(4-Fluoro-phenyl)-5-methyl-isoxazol-4-ylmethoxy]-2-methyl-2H-pyrazole-3-carboxylic acid (2-hydroxy-1,1-dimethyl-ethyl)-amide] as the compound, how does the Ki read?
A: 0.0296 µM

Q: Which Ki does the source give for `Cc1onc(-c2ccc(F)cc2)c1/C=C\c1cc(C(=O)NC(C)C)n(C)n1` [Example 120, 5-{(Z)-2-[3-(4-Fluoro-phenyl)-5-methyl-isoxazol-4-yl]-vinyl}-2-methyl-2H-pyrazole-3-carboxylic acid isopropylamide] here?
A: 0.028 µM

Q: With `Cc1onc(-c2ccccc2)c1COc1cc(C(=O)NN(C)C)n(C)n1` [Example 47, 2-Methyl-5-(5-methyl-3-phenyl-isoxazol-4-ylmethoxy)-2H-pyrazole-3-carboxylic acid N′,N′-dimethyl-hydrazide] as the compound, how does the Ki read?
A: 0.0503 µM

Q: `CCCCc1noc(C)c1COc1cc(C(=O)NC(C)C)n(C)n1` [Example 86, 5-(3-Butyl-5-methyl-isoxazol-4-ylmethoxy)-2-methyl-2H-pyrazole-3-carboxylic acid isopropylamide] was tested. Which Ki did it give?
A: 0.0392 µM

Q: With `Cc1onc(-c2ccccc2)c1COc1cc(C(=O)NC2CCOCC2)n(C)n1` [Example 44, 2-Methyl-5-(5-methyl-3-phenyl-isoxazol-4-ylmethoxy)-2H-pyrazole-3-carboxylic acid (tetra-hydro-pyran-4-yl)-amide] as the compound, how does the Ki read?
A: 0.0031 µM
